Entries after “also recorded” stand apart in the source; their conditions may differ.

For data set [1], the system named is human xenograft tumor models. Conditions: multiple human xenograft tumor models in mice; cited from earlier work. (A xenograft is tissue or cells of one species grown in another, often human tumour cells in immunodeficient mice.)
In data set [2] the test system is tyrosine kinases, including RET, CBL, CHR4q12, DDR and Trk. Conditions: cited from earlier work.
Data set [3] can be described thus: Drying experiments (non-solvent based), solid form by XRPD. Type of data set: physicochemical. Particulars: Vacuum oven drying, ~40° C., 2.5. The method, then: (§1) XRPD patterns were collected with a PANalytical X'Pert PRO MPD diffractometer using an incident beam of Cu radiation produced using an Optix long, fine-focus source. An elliptically graded multilayer mirror was used to focus Cu Kα X-ray radiation through the specimen and onto the detector. Prior to the analysis, a silicon specimen (NIST SRM 640d) was analyzed to verify the observed position of the Si (111) peak is consistent with the NIST-certified position. A specimen of the sample was sandwiched between 3-μm-thick films and analyzed in transmission geometry. A beam-stop, short antiscatter extension, and antiscatter knife edge, were used to minimize the background generated by air. Soller slits for the incident and diffracted beams were used to minimize broadening from axial divergence. Diffraction patterns were collected using a scanning position-sensitive detector (X'Celerator) located 240 mm from the specimen and Data Collector software v. 2.2b.
Limited non-solvent based experiments were conducted with materials generated during the stable form screen and included short term vacuum drying at elevated temperature.

Data set [4] is described as follows: Preliminary physical stability assessment of Form D, XRPD. Type of data set: physicochemical. Here is the method:
as §1, with “2.2b. Preliminary physical stability assessment of Form D was performed. […] The XRPD patterns of the stressed materials show no significant peak shifts compared to the untreated samples. The XRPD pattern of Form D obtained from high water activity slurry is consistent with the pattern of the untreated material. However, small shifts of selected peaks were observed, possibly due to hydration.” for “2.2b.”

Data set [5] in a line: Slurry interconversion experiments, solid form by XRPD. Conditions: slurry of Forms C, D, and H in ethyl acetate. The format is physicochemical. The method, then: as §1
To investigate the relationship between selected materials produced during screening, limited slurry interconversion experiments were conducted. The experiments were performed by slurring seeds of solids of interest at ambient temperature in two different solvent systems. All materials were vacuum dried prior to the slurry (˜40° C., ˜2.5 hours). Solvent conditions were selected to achieve sufficient solubility of materials tested. […]

For `COCCNCc1ccc(-c2cc3nccc(Oc4ccc(NC(=O)C5(C(=O)Nc6ccc(F)cc6)CC5)cc4F)c3s2)nc1` [Compound 1, N-(3-fluoro-4-((2-(5-(((2-methoxyethyl)amino)methyl)pyridin-2-yl)thieno[3,2-b]pyridin-7-yl)oxy)phenyl)-N-(4-fluorophenyl)cyclopropane-1,1-dicarboxamide], the tumor regression entry in data set [1] is given as “shows tumor regression”. The “inhibition of a closely related spectrum of tyrosine kinases” value in data set [2] is “potent inhibition”.
In the case of `COCCNCc1ccc(-c2cc3nccc(Oc4ccc(NC(=O)C5(C(=O)Nc6ccc(F)cc6)CC5)cc4F)c3s2)nc1` [Form C, N-(3-fluoro-4-((2-(5-(((2-methoxyethyl)amino)methyl)pyridin-2-yl)thieno[3,2-b]pyridin-7-yl)oxy)phenyl)-N-(4-fluorophenyl)cyclopropane-1,1-dicarboxamide], in data set [3], the “XRPD Results after drying” value is recorded as “Form C”.
In the case of `COCCNCc1ccc(-c2cc3nccc(Oc4ccc(NC(=O)C5(C(=O)Nc6ccc(F)cc6)CC5)cc4F)c3s2)nc1` [Form D], the “XRPD Results after drying” value in data set [3] was “remained unchanged; also recorded: Form D”. The “XRPD Results (physical stability)” value in data set [4] (Acetone/water (40/60), slurry, RT) was “Consistent with Form D, slight peak shifts”; in data set [4] (EtOH/water (40/60), slurry, RT), “Consistent with Form D, slight peak shifts”; in data set [4] (Water, slurry, RT), “Consistent with Form D, slight peak shifts”; in data set [4] (~43% RH/RT) it was “remained unchanged; also recorded: Consistent with Form D, no significant shifts of peaks”; in data set [4] (~75% RH/RT) it was “remained unchanged; also recorded: Consistent with Form D, no significant shifts of peaks”.
In the case of `COCCNCc1ccc(-c2cc3nccc(Oc4ccc(NC(=O)C5(C(=O)Nc6ccc(F)cc6)CC5)cc4F)c3s2)nc1` [Form H, N-(3-fluoro-4-((2-(5-(((2-methoxyethyl)amino)methyl)pyridin-2-yl)thieno[3,2-b]pyridin-7-yl)oxy)phenyl)-N-(4-fluorophenyl)cyclopropane-1,1-dicarboxamide], the “XRPD Results after drying” value in data set [3] was “Form H”. Further, the “relative thermodynamic stability among Forms C, D and H” value in data set [5] is recorded as “least thermodynamically stable”.

(Values after US12466838B2, “Crystalline form of a multi-tyrosine kinase inhibitor, method of preparation, and use thereof” (Mirati Therapeutics, Inc., priority 2019, dated 2025).)
